Measured values as given in patent US9156872B2, “2′-azido substituted nucleoside derivatives and methods of use thereof for the treatment of viral diseases” (priority 2011, dated 2015).
Where two headings read alike, the source gives them in different places.

System: HCV replicon cells
Test: Cell-based HCV replicon assay (replicon RNA by Taqman real time PCR)
Settings: read-out: 1b EC50
[1] = HCV replicon 1b, cells harvested on day 3
[2] = Hepatitis C virus, 72 h, HCV replicon 1b, cells harvested on day 3

Row | SMILES | EC50 (Hepatitis C virus, 72 h) | also measured
1 | CCCCOC(=O)[C@H](C)NP(=O)(OC[C@H]1O[C@@H](n2ccc(=O)[nH]c2=O)[C@](C)(N=[N+]=[N-])[C@@H]1O)Oc1cccc2ccccc12 (stereo partly drawn) [Compound 6] | 1.1 µM | –
2 | CCOC(=O)[C@H](C)NP(=O)(OC[C@H]1O[C@@H](n2cnc3c(OC)nc(N)nc32)[C@](C)(N=[N+]=[N-])[C@@H]1O)Oc1ccc(Cl)cc1 (single isomer, unassigned) [Compound 289] | – | EC50: 0.7 µM
3 | COC(=O)[C@H](C)NP1(=O)OC[C@H]2O[C@@H](n3ccc(N)nc3=O)[C@](C)(N=[N+]=[N-])[C@@H]2O1 (single isomer, unassigned) [Compound 530] | – | EC50 [1]: 67 µM
4 | COc1nc(N)nc2c1ncn2[C@@H]1O[C@H](COP(=O)(N[C@@H](C)C(=O)OC(C)C)Oc2ccc(Cl)c(Cl)c2)[C@@H](O)[C@@]1(C)N=[N+]=[N-] (stereo partly drawn) [Compound 244] | 6 µM | –
5 | COC(=O)[C@H](C)NP(=O)(OC[C@H]1O[C@@H](n2cnc3c(OC)nc(N)nc32)[C@](C)(N=[N+]=[N-])[C@@H]1O)Oc1ccccc1Cl (stereo partly drawn) [Compound 77] | 0.6 µM | –
6 | CCCCOC(=O)[C@H](C)NP(=O)(OC[C@H]1O[C@@H](n2cnc3c(OC)nc(N)nc32)[C@](C)(N=[N+]=[N-])C1O)Oc1cccc2ccccc12 (single isomer, unassigned) [Compound 298] | – | EC50: 0.1 µM
7 | CCOc1nc(N)nc2c1ncn2[C@@H]1O[C@@H]2COP(=O)(OC3CCC3)O[C@H]2[C@@]1(C)N=[N+]=[N-] (single isomer, unassigned) [Compound 107] | – | EC50 [1]: 18.6 µM
8 | CCCCOC(=O)[C@H](C)NP(=O)(OC[C@H]1O[C@@H](n2ccc(=O)[nH]c2=O)[C@](C)(N=[N+]=[N-])[C@@H]1O)Oc1cccc2ccccc12 (single isomer, unassigned) [Compound 155] | 2.2 µM | –
9 | COc1nc(N)nc2c1ncn2[C@@H]1O[C@H](COP(=O)(N[C@@H](C)C(=O)OCC(C)C)Oc2ccccc2)[C@@H](O)[C@@]1(C)N=[N+]=[N-] (stereo partly drawn) [Compound 245] | 0.4 µM | –
10 | CC(C)OC(=O)[C@H](C)NP(=O)(OC[C@H]1O[C@@H](n2ccc(=O)[nH]c2=O)[C@](C)(N=[N+]=[N-])[C@@H]1O)Oc1ccc2c(c1)OCO2 (stereo partly drawn) [Compound 42] | 25 µM | –
11 | CC(C)OC(=O)[C@H](C)NP(=O)(OC[C@H]1O[C@@H](n2ccc(N)nc2=O)[C@](C)(N=[N+]=[N-])[C@@H]1O)Oc1ccc2c(c1)OCO2 (single isomer, unassigned) [Compound 334] | – | EC50: 13 µM
12 | CCOc1nc(N)nc2c1ncn2[C@@H]1O[C@H](COP(=O)(N[C@@H](C)C(=O)OC)Oc2ccc(Cl)cc2)[C@@H](O)[C@@]1(C)N=[N+]=[N-] (stereo partly drawn) [Compound 63] | 0.4 µM | –
13 | COC(=O)c1ccccc1OP(=O)(N[C@@H](C)C(=O)OC)OC[C@H]1O[C@@H](n2ccc(=O)[nH]c2=O)[C@](C)(N=[N+]=[N-])[C@@H]1O (single isomer, unassigned) [Compound 228] | – | EC50: 1.3 µM
14 | CC(C)OC(=O)[C@H](C)NP(=O)(OC[C@H]1O[C@@H](n2ccc(N)nc2=O)[C@](C)(N=[N+]=[N-])[C@@H]1O)Oc1ccccc1 (stereo partly drawn) [Compound 22] | 3.1 µM | –
15 | C[C@H](NP(=O)(OC[C@H]1O[C@@H](n2ccc(=O)[nH]c2=O)[C@](C)(N=[N+]=[N-])[C@@H]1O)Oc1ccccc1)C(=O)OCC(C)(C)C (single isomer, unassigned) [Compound 153] | – | EC50: 19 µM
16 | COC(=O)c1ccccc1OP(=O)(N[C@@H](C)C(=O)OC)OC[C@H]1O[C@@H](n2cnc3c(OC)nc(N)nc32)[C@](C)(N=[N+]=[N-])[C@@H]1O (stereo partly drawn) [Compound 223] | 8.8 µM | –
17 | CCCOC(=O)[C@H](C)NP(=O)(OC[C@H]1O[C@@H](n2ccc(=O)[nH]c2=O)[C@](C)(N=[N+]=[N-])[C@@H]1O)Oc1cccc2ccccc12 (stereo partly drawn) [Compound 374] | 5.6 µM | –
18 | CCOC(=O)[C@H](C)NP(=O)(OC[C@H]1O[C@@H](n2cnc3c(OCC)nc(N)nc32)[C@](C)(N=[N+]=[N-])[C@@H]1O)Oc1ccccc1 (stereo partly drawn) [Compound 10] | 0.9 µM | –
19 | COC(=O)[C@H](C)NP(=O)(OC[C@H]1O[C@@H](n2cnc3c(NC4CC4)nc(N)nc32)[C@](C)(N=[N+]=[N-])[C@@H]1O)Oc1ccccc1Cl (stereo partly drawn) [Compound 385] | 1.4 µM | –
20 | C[C@@]1(N=[N+]=[N-])[C@@H]2OP(=O)(OC3CCCC3)OC[C@H]2O[C@H]1n1ccc(=O)[nH]c1=O (single isomer, unassigned) [Compound 561] | – | EC50 [1]: 3.1 µM
21 | COC(=O)[C@H](C)NP(=O)(OC[C@H]1O[C@@H](n2cnc3c(OC)nc(N)nc32)[C@](C)(N=[N+]=[N-])[C@@H]1O)Oc1cccc2ccccc12 (stereo partly drawn) [Compound 57] | 0.4 µM | –
22 | COC(=O)[C@H](C)NP(=O)(OC[C@H]1O[C@@H](n2ccc(=O)[nH]c2=O)[C@](C)(N=[N+]=[N-])[C@@H]1O)Oc1cccc2ccccc12 (single isomer, unassigned) [Compound 217] | – | EC50: 2.1 µM
23 | COc1nc(N)nc2c1ncn2[C@@H]1O[C@H](COP(=O)(N[C@@H](C)C(=O)OC2CCCCC2)Oc2ccc(F)cc2)[C@@H](O)[C@@]1(C)N=[N+]=[N-] (stereo partly drawn) [Compound 241] | 1.9 µM | –
24 | COC(=O)[C@H](C)NP(=O)(OC[C@H]1O[C@@H](n2ccc(=O)[nH]c2=O)[C@](C)(N=[N+]=[N-])[C@@H]1O)Oc1ccc(Cl)cc1 (stereo partly drawn) [Compound 325] | – | EC50: 4 µM

Row | SMILES | EC50 (Hepatitis C virus, 72 h) | also measured
25 | CCOC(=O)[C@H](C)NP(=O)(OC[C@H]1O[C@@H](n2ccc(N)nc2=O)[C@](C)(N=[N+]=[N-])[C@@H]1O)Oc1ccccc1Cl (stereo partly drawn) [Compound 183] | 3 µM | –
26 | CCOC(=O)c1cccc(OP(=O)(N[C@@H](C)C(=O)OC)OC[C@H]2O[C@@H](n3ccc(=O)[nH]c3=O)[C@](C)(N=[N+]=[N-])[C@@H]2O)c1 (stereo partly drawn) [Compound 222] | 0.01 µM | –
27 | CCCCOC(=O)[C@H](C)NP(=O)(OC[C@H]1O[C@@H](n2ccc(=O)[nH]c2=O)[C@](C)(N=[N+]=[N-])[C@@H]1O)Oc1ccccc1 (single isomer, unassigned) [Compound 170] | – | EC50: 1.5 µM
28 | C[C@H](NP(=O)(OC[C@H]1O[C@@H](n2ccc(=O)[nH]c2=O)[C@](C)(N=[N+]=[N-])[C@@H]1O)Oc1ccccc1)C(=O)OCC(C)(C)C (stereo partly drawn) [Compound 16] | 1 µM | –
29 | COC(=O)[C@H](C)NP(=O)(OC[C@H]1O[C@@H](n2cnc3c(OC)nc(N)nc32)[C@](C)(N=[N+]=[N-])[C@@H]1O)Oc1ccc(Cl)c(Cl)c1 (stereo partly drawn) [Compound 248] | 1 µM | –
30 | COC(=O)c1ccccc1OP(=O)(N[C@@H](C)C(=O)OC)OC[C@H]1O[C@@H](n2ccc(=O)[nH]c2=O)[C@](C)(N=[N+]=[N-])[C@@H]1O (single isomer, unassigned) [Compound 227] | – | EC50: 3.1 µM
31 | C[C@H](NP(=O)(OC[C@H]1O[C@@H](n2ccc(=O)[nH]c2=O)[C@](C)(N=[N+]=[N-])[C@@H]1O)Oc1ccc(Cl)cc1)C(=O)OCc1ccccc1 (stereo partly drawn) [Compound 304] | 60 µM | –
32 | CCOc1nc(N)nc2c1ncn2[C@@H]1O[C@H](COP(=O)(N[C@@H](C)C(=O)OC)Oc2ccccc2)[C@@H](O)[C@@]1(C)N=[N+]=[N-] (stereo partly drawn) [Compound 9] | 0.8 µM | –
33 | COC(=O)[C@H](C)NP(=O)(OC[C@H]1O[C@@H](n2ccc(=O)[nH]c2=O)[C@](C)(N=[N+]=[N-])[C@@H]1O)Oc1cccc2ccccc12 (stereo partly drawn) [Compound 41] | 0.003 µM | –
34 | CCCOP1(=O)OC[C@H]2O[C@@H](n3ccc(=O)[nH]c3=O)[C@](C)(N=[N+]=[N-])[C@@H]2O1 (single isomer, unassigned) [Compound 565] | – | EC50 [1]: > 100 µM
35 | COc1nc(N)nc2c1ncn2[C@@H]1O[C@H](COP(=O)(N[C@@H](C)C(=O)OCC(C)C)Oc2ccccc2)C(O)[C@@]1(C)N=[N+]=[N-] (single isomer, unassigned) [Compound 276] | 2.7 µM | –
36 | CCCCOC(=O)[C@H](C)NP(=O)(OC[C@H]1O[C@@H](n2cnc3c(OC)nc(N)nc32)[C@](C)(N=[N+]=[N-])[C@@H]1O)Oc1cccc2ccccc12 (stereo partly drawn) [Compound 52] | 1.2 µM | –
37 | CCOC(=O)[C@H](C)NP(=O)(OC[C@H]1O[C@@H](n2cnc3c(N4CCC4)nc(N)nc32)[C@](C)(N=[N+]=[N-])[C@@H]1O)Oc1ccccc1 (stereo partly drawn) [Compound 391] | 1.5 µM | –
38 | CCOc1nc(N)nc2c1ncn2[C@@H]1O[C@@H]2COP(=O)(OC3CCCC3)O[C@H]2[C@@]1(C)N=[N+]=[N-] (stereo partly drawn) [Compound 73] | – | EC50 [2]: 0.7 µM
39 | CCCCOC(=O)[C@H](C)NP(=O)(OC[C@H]1O[C@@H](n2ccc(=O)[nH]c2=O)[C@](C)(N=[N+]=[N-])[C@@H]1O)Oc1ccc(Cl)c(Cl)c1 (stereo partly drawn) [Compound 372] | 6 µM | –
40 | CCCCOC(=O)[C@H](C)NP(=O)(OC[C@H]1O[C@@H](n2ccc(=O)[nH]c2=O)[C@](C)(N=[N+]=[N-])[C@@H]1O)Oc1ccccc1 (single isomer, unassigned) [Compound 169] | – | EC50: 3.5 µM
41 | CCCOC(=O)[C@H](C)NP(=O)(OC[C@H]1O[C@@H](n2ccc(N)nc2=O)[C@](C)(N=[N+]=[N-])[C@@H]1O)Oc1ccccc1 (stereo partly drawn) [Compound 30] | 3.3 µM | –
42 | CC(C)OP1(=O)OC[C@H]2O[C@@H](n3ccc(N)nc3=O)[C@](C)(N=[N+]=[N-])[C@@H]2O1 (stereo partly drawn) [Compound 19] | – | EC50 [2]: > 100 µM
43 | COc1nc(N)nc2c1ncn2[C@@H]1O[C@H](COP(=O)(N[C@@H](C)C(=O)OCC(C)(C)C)Oc2ccccc2)C(O)[C@@]1(C)N=[N+]=[N-] (single isomer, unassigned) [Compound 291] | – | EC50: 2.4 µM
44 | COc1nc(N)nc2c1ncn2[C@@H]1O[C@H](COP(=O)(N[C@@H](C)C(=O)OCc2ccccc2)Oc2ccccc2)[C@@H](O)[C@@]1(C)N=[N+]=[N-] (stereo partly drawn) [Compound 246] | 0.6 µM | –
45 | CCCOC(=O)[C@H](C)NP(=O)(OC[C@H]1O[C@@H](n2cnc3c(OC)nc(N)nc32)[C@](C)(N=[N+]=[N-])C1O)Oc1ccccc1 (single isomer, unassigned) [Compound 287] | 0.9 µM | –
46 | CCOc1nc(N)nc2c1ncn2[C@@H]1O[C@H](COP(=O)(N[C@@H](C)C(=O)OC)Oc2ccc(Cl)c(Cl)c2)[C@@H](O)[C@@]1(C)N=[N+]=[N-] (stereo partly drawn) [Compound 308] | 2.1 µM | –
47 | CCCCOC(=O)[C@H](C)NP(=O)(OC[C@H]1O[C@@H](n2ccc(=O)[nH]c2=O)[C@](C)(N=[N+]=[N-])[C@@H]1O)Oc1ccccc1Cl (stereo partly drawn) [Compound 377] | 6.8 µM | –
48 | CCOC(=O)[C@H](C)NP(=O)(OC[C@H]1O[C@@H](n2cnc3c(OC)nc(N)nc32)[C@](C)(N=[N+]=[N-])[C@@H]1O)Oc1ccc(F)cc1 (single isomer, unassigned) [Compound 270] | – | EC50: 1.8 µM
